Measured values as given in patent US11884710B2, “Peptide compounds and methods of use in wound healing” (priority 2013, dated 2024).

Assays:
[1] = test system: P. aeruginosa (ATCC 27853); assay: Mouse model of Pseudomonas (bacterial) keratitis; format: in vivo; conditions: 48 hours post-infection
Method: A circular wound was created on the mouse cornea by removing the epithelium and infected with 10^5 colony forming units (CFU) of P. aeruginosa (ATCC® 27853™ (American Type Culture Collection, Manassas, Va.)). Infected wounds were treated with saline (0.9% sodium chloride, vehicle control) or saline containing indicated concentrations of peptide every 15 minutes for 2 hours, then every 30 minutes for 3 hours on the first day. Infected wounds were treated twice on the second day and once on the third day. Mice were killed at 48 hours post-infection, and CFU/eye were quantified. The means were plotted and are representative of 5 to 9 mice per group. Mann Whitney test was performed for each group as compared to the saline control group. *P=0.014. In compound names such as BCC02-5RMP used herein, “R” represents arginine, and “MP” represents a small PEG molecule as defined elsewhere herein (such as, for example but not by way of limitation, “AEEP”).
(§1) A circular wound was created on the mouse cornea by removing the epithelium, and the wound was infected with 10^5 CFU of P. aeruginosa (ATCC® 27853™ (American Type Culture Collection, Manassas, Va.)). Infected wounds were treated with saline or saline containing indicated concentrations (2, 5, 10, and 20 mg/ml) of peptide every 30 minutes for 6 hours on the first day. Infected wounds were treated twice on the second day and once on the third day. Mice were killed at 48 hours post-infection, and the CFU/eye were quantified. The means are plotted and are representative of 5 mice per group. Mann Whitney test was performed for each group as compared to the saline control group. *P=0.015 and **P=0.097.
as §1, with “representative of 4 to 5 mice” for “representative of 5 mice”, “control group.” for “control group. *P=0.015 and **P=0.097.”
as §1, with “group. **P=0.0079 by” for “group.”, “test” for “test was performed for each group”, “group.” for “group. *P=0.015 and **P=0.097.”
A circular wound (2 mm) was created on the mouse cornea by removing the epithelium and infecting the wound with 10^5 CFU of P. aeruginosa (ATCC® 27853™ (American Type Culture Collection, Manassas, Va.)). Infected wounds were treated with saline or saline containing indicated concentrations of peptide every 15 minutes for 2 hours, then every 30 minutes for 3 hours on the first day. […] Mice were killed at 48 hours post-infection, and the colony forming units per eye (CFU/eye) were quantified. […]

[2] = test system: full thickness excisional wounds; assay: Histopathology of swine dermal wounds; format: in vivo; set-up: Inflammation, mean histopathology score / Angiogenesis, mean histopathology score / Granulation, mean histopathology score / Epithelization, mean histopathology score: scale not given here; conditions: for epidermal resurfacing and maturation vs saline control, in words: day 14 post-wounding; for Angiogenesis, mean histopathology score / Epithelization, mean histopathology score / Granulation, mean histopathology score / Inflammation, mean histopathology score: wounds harvested on day 14, 3 mg/ml
Method: The characteristics that were measured are required to indicate features of a well-healed wound. Inflammation should be low and re-epithelialization high.
Full thickness excisional wounds were induced on the dorsum of swine (N=3) using a 1.0 cm biopsy punch. Treatments were administered (0.20 ml) to each wound (N=6 wounds per group), and the wounds were dressed with standard occlusive dressing ([…]™, 3M Corporation, St. Paul, Minn.). Treatments were reapplied daily and dressings changed. Clinical wound healing observations and wound area (2 mm) measurements were performed on days 0, 3, 5, 7, 10, and 14 post-wounding. Wound area (2 mm) data were expressed as percentage (%) of wound healing. Animals were terminated on day 14 with wounds harvested and processed for histological evaluation. […] All peptide formulation treatment groups healed faster with greater rate of closure and re-epithelialization over time, as compared to the saline control (Group A).
The histology correlated with the clinical observations. […] There were minimal differences in the amount or character of granulation tissue, inflammation, and angiogenesis. All the wounds were well filled and vascularized.

[3] = test system: human corneal epithelial cell (HCEC); assay: HCEC chemotaxis, modified Boyden chemotaxis chamber; format: cell-based; conditions: rCAP37 250 ng/ml; positive control for the peptide
Method: The effect of buffer control (0.1% BSA in Gey's buffer), heparin binding-epidermal growth factor (HB-EGF, 50 ng/ml), recombinant CAP37 (rCAP37, 250 ng/ml), 120-146QH (10^−12M, 10^−10 M, 10^−8 M, 10^−6M, and 10^−4M,) and 120-146QR (10^−10M, 10^−8M, 10^−6M, and 10^−4M) on HCEC chemotaxis was determined by the modified Boyden chemotaxis chamber method. HCEC chemotaxis was measured in response to HB-EGF, rCAP37, and peptides 120-146QH (SEQ ID NO:29) and 120-146QR (SEQ ID NO:28) after incubation for 3 hours at 37° C. Chemotaxis is expressed as a percent migration. The buffer control (no chemoattractant) is arbitrarily assigned the value of 100% migration. Data are expressed as means±SEM and are calculated from 6 observations for each test point. **P<0.01 by Wilcoxon signed-rank test as compared to controls.
Chemotaxis: Chemotaxis assays were performed using the modified Boyden chemotaxis chamber assay. Peptide 120-146QH was used at 10^−4 M, 10^−6 M, 10^−8 M, 10^−10 M, and 10^−12 M, and peptide 120-146QR was used at 10^−4 M, 10^−6 M, 10^−8M, and 10^−10M.

## GTRCQVAGWGSWHSGGRLSRFPRFVNV (derivative of peptide of CAP37 protein) [Peptide 120-146WH]
[1]; topical doses of 10 and 20 mg/ml
  CFU/eye vs saline, in words: significantly reduced the CFU/eye
[2]
  epidermal resurfacing and maturation vs saline control, in words: greater extent of epidermal resurfacing and maturation of the epidermis
  Angiogenesis, mean histopathology score: 1.7
  Epithelization, mean histopathology score: 3.7
  Granulation, mean histopathology score: 4.0
  Inflammation, mean histopathology score: 0.5

## GTRCQVAGWGSWRSGGRLSRFPRFVNV (derivative of peptide of Homo sapiens CAP37 protein) [Peptide 120-146WR]
[1]; topical 5, 10, and 20 mg/ml
  infection (CFU/eye) vs saline, in words: significantly reduced infection

## LDREANLTSSVTILPLPLQNATVEAGTR (listed as Homo sapiens) [Peptide 95-122]
[2]
  epidermal resurfacing and maturation vs saline control, in words: greater extent of epidermal resurfacing and maturation of the epidermis
  Angiogenesis, mean histopathology score: 2.3
  Epithelization, mean histopathology score: 4.0
  Granulation, mean histopathology score: 4.0
  Inflammation, mean histopathology score: 0.5

B1: CAP37: cationic antimicrobial protein of Mr 37 kDa; recombinant CAP37 produced in human embryonic kidney (HEK) 293 cells (protein)
chain: IVGGRKARPRQFPFLASIQNQGRHFCGGALIHARFVMTAASCFQSQNPGVSTVVLGAYDLRRRERQSRQTFSISSMSENGYDPQQNLNDLMLLQLDREANLTSSVTILPLPLQNATVEAGTRCQVAGWGSQRSGGRLSRFPRFVNVTVTPEDQCRPNNVCTGVLTRRGGICNGDGGTPLVCEGLAHGVASFSLGPCGRGPDFFTRVALFRDWIDGVLNNPGP
[3]
  migration of HCECs vs buffer control, in words: significant increase in migration
